Assay results: patent publication US12144811B2, “Combination of a 4-pyrimidinesulfamide derivative with an SGLT-2 inhibitor for the treatment of endothelin related diseases” (IDORSIA PHARMACEUTICALS LTD, priority 2017, dated 2024)
One block for each compound: values may come before it.

Legend:
[1] = tested on: conscious, male hypertensive Dahl salt-sensitive rats; experiment: Acute effects on MAP and HR by telemetry in Dahl salt-sensitive rats; assay type: in vivo, rat; conditions: Dahl-S rats
Excerpt: The acute effects of ACT-132577 on blood pressure, in particular on mean arterial blood pressure (hereafter “MAP”), and heart rate (hereafter “HR”) can be evaluated by means of telemetry in conscious, male hypertensive Dahl salt-sensitive rats (hereafter “Dahl-S rats”—see details about this model in Rapp, Hypertension (1982), 4, 753-763). Elevated blood pressure is induced in Dahl-S rats by providing 1% sodium chloride in drinking water. Groups of 6-7 Dahl-S rats are used for the vehicle (7.5% gelatin aqeuous solution) and each dose of ACT-132577 tested (0.3, 1, 3, 10, 30, 100, and 300 mg/kg). Effects of ACT-132577 on HR and MAP are calculated for individual animals relative to the 24 h period before administering. The results obtained regarding MAP (maximal MAP decrease observed over 6 consecutive hours) are summarised in FIG. 3 (data are presented as mean±standard error of the mean). […] In contrast to MAP, HR was not affected.

[2] = tested on: conscious, male hypertensive deoxycorticosterone acetate salt rats; experiment: Chronic effects of ACT-132577 in DOCA-salt rats; assay type: in vivo, rat
Excerpt: Res. (1975), 36, 300-309). In the DOCA-salt rats, hypertension is induced by the combination of unilateral nephrectomy, implantation of pellets of the mineralocorticoid analog DOCA, and provision of 1% sodium chloride in drinking water. The results of the DOCA-salt rats treated with ACT-132577 can be compared to those obtained for Wistar rats or for DOCA-salt rats that received only the vehicle (4% gelatin aqueous solution).

[3] = tested on: conscious, male hypertensive deoxycorticosterone acetate salt rats; experiment: Acute effects of Exforge HCT alone or with ACT-132577 or spironolactone in DOCA-salt rats; assay type: in vivo, rat; conditions: for Blood pressure when added on top of Exforge HCT: aprocitentan 10 mg/kg or spironolactone 300 mg/kg, single oral doses
Excerpt: Res. (1975), 36, 300-309). In the DOCA-salt rats, hypertension is induced by the combination of unilateral nephrectomy, implantation of pellets of the mineralocorticoid analog DOCA, and provision of 1% sodium chloride in drinking water. 7-9 DOCA-salt rats per treatment group are used for this test. The results obtained regarding MAP are summarised in FIGS. 17 and 18 wherein each data point is presented as a 6-hour mean.

[4] = in comparison to corresponding alkylated derivatives; cited from earlier work
[5] = tested on: conscious, male spontaneaously hypertensive rats; experiment: Acute effects of Exforge HCT alone or with ACT-132577 or spironolactone in SHRs; assay type: in vivo, rat; conditions: for Blood pressure when added on top of Exforge HCT: aprocitentan 100 mg/kg or spironolactone 300 mg/kg oral
Method: The acute effects of Exforge HCT® (i.e. a fixed dose combination of valsartan/amlodipine/hydrochlorothiazide; dosage adapted for 1.6 mg/kg/0.1 mg/kg/0.25 mg/kg for valsartan/amlodipine/hydrochlorothiazide, respectively) on blood pressure, in particular on mean arterial blood pressure (hereafter “MAP”), and heart rate (hereafter “HR”) in combination with ACT-132577 or spironolactone can be evaluated by means of telemetry in conscious, male spontaneaously hypertensive rats (hereafter “SHRs”—see details about this model in Atanur et al., Genome Res. (2010), 20, 791-803).
9 SHRs per treatment group are used for this test. To match the maximal effect on blood pressure of co-administereds drug in this model, aprocitentan 100 mg/kg is administrated orally on the 3rd day following 3-day oral administration of Exforge HCT® mg/kg and spironolactone 300 mg/kg is co-administered orally with Exforge HCT® on the 1st day followed by 2 days of Exforge HCT® administration. The results obtained regarding MAP are summarised in FIGS. 15 and 16 wherein each data point is presented as a 6-hour mean.

[6] = tested on: male Wistar rats; experiment: Effect on fluid retention: haematocrit in Wistar rats; assay type: in vivo, rat; conditions: single oral dose 1-30 mg/kg, 24 hours after administration
Method: A decrease in haematocrit (Hct) or haemoglobin occurs secondary to an increase in plasma volume and can be used as a marker of fluid retention. A single oral dose of ACT 132577 (1-30 mg/kg) or vehicle (gelatin) is administered by gavage to male Wistar rats. Twenty-four hours after administration, sublingual blood was sampled under isoflurane-induced anesthesia. Haematocrit is measured using a hematology analyser.

[7] = tested on: conscious, male hypertensive deoxycorticosterone acetate salt rats; experiment: Acute effects on MAP and HR by telemetry in DOCA-salt rats; assay type: in vivo, rat
Excerpt: The acute effects of ACT-132577 on blood pressure, in particular on mean arterial blood pressure (hereafter “MAP”), and heart rate (hereafter “HR”) can be evaluated by means of telemetry in conscious, male hypertensive deoxycorticosterone acetate salt rats (hereafter “DOCA-salt rats”—see details about this model in Gavras et al., Circ. Res. (1975), 36, 300-309). In the DOCA-salt rats, hypertension is induced by the combination of unilateral nephrectomy, implantation of pellets of the mineralocorticoid analog DOCA, and provision of 1% sodium chloride in drinking water. Groups of 6-11 DOCA-salt rats are used for the vehicle (7.5% gelatin aqeuous solution) and each dose of ACT-132577 tested (0.3, 1, 3, 10, 30, 100, and 300 mg/kg). Effects of ACT-132577 on HR and MAP are calculated for individual animals relative to the 24 h period before administering. The results obtained regarding MAP (maximal MAP decrease observed over 6 consecutive hours) are summarised in FIG. 4 (data are presented as mean±standard error of the mean). […] In contrast to MAP, HR was not affected.

[8] = tested on: Spontaneously hypertensive rats (SHR); experiment: Blood pressure by telemetry in SHR, SGLT-2 inhibitor alone or in combination with ACT-132577; assay type: in vivo, rat; conditions: for Maximal effect on MAP of SGLT2 inhibitor alone: 30 mg/kg/day by gavage
Excerpt: Spontaneously hypertensive rats (SHR) are instrumented micro-surgically with a telemetry pressure transmitter implanted in the peritoneal cavity (Data Science International, Minnesota, USA) under isoflurane-induced narcosis. In brief, the pressure catheter is inserted into the aorta, below the renal artery pointing upstream. The abdomen is closed and the transmitter sutured to the abdominal musculature. Blood pressure is collected continuously using the Dataquest ART Platinum acquisition system (version 4.36). Drugs (ACT-132577 or SGLT2 inhibitors) or vehicle are administered by gavage (n=4-7 per group) alone or in combination. Systolic, mean and diastolic arterial pressures, and heart rate are collected at 5-minute intervals until the blood pressure curve comes back to baseline.
Because it takes several days for the SGLT2 inhibitors to exert an effect on blood pressure, rats are treated first for 12 days with either vehicle (5 ml/kg/day), or canagliflozin (30 mg/kg/day) or empagliflozin (30 mg/kg/day), then ACT-132577 (30 mg/kg/day) is co-administered for 3 additional days.

[9] = tested on: conscious, male spontaneaously hypertensive rats; experiment: Acute effects on MAP and HR by telemetry in SHRs; assay type: in vivo, rat
Method: The acute effects of ACT-132577 on blood pressure, in particular on mean arterial blood pressure (hereafter “MAP”), and heart rate (hereafter “HR”) can be evaluated by means of telemetry in conscious, male spontaneaously hypertensive rats (hereafter “SHRs”—see details about this model in Atanur et al., Genome Res. (2010), 20, 791-803). Groups of 4-6 SHRs are used for the vehicle (7.5% gelatin aqeuous solution) and each dose of ACT-132577 tested (1, 3, 10, 30, 100, and 300 mg/kg). Effects of ACT-132577 on HR and MAP are calculated for individual animals relative to the 24 h period before administering. The results obtained regarding MAP (maximal MAP decrease observed over 6 consecutive hours) are summarised in FIG. 5 (data are presented as mean±standard error of the mean). […] In contrast to MAP, HR was not affected.

[10] = tested on: patients with type 2 diabetes; conditions: overt diabetic nephropathy; cited from earlier work
[11] = Storage of Form A crystals at room temperature (XRPD and HPLC control); assay type: physicochemical; conditions: 20-25° C., 92% relative humidity
Method: All XRPD patterns for the solid forms described herein have been obtained as described hereafter. X-ray powder diffraction patterns were collected on a Bruker D8 Advance X-ray diffractometer equipped with a Lynxeye detector operated with CuKα-radiation in reflection mode (coupled two Theta/Theta). Typically, the X-ray tube was run at of 40 kV/40 mA. A step size of 0.02° (2θ) and a step time of 76.8 sec over a scanning range of 3-50° in 2θ were applied. The divergence slit was set to fixed 0.3. Powders were slightly pressed into a silicon single crystal sample holder with depth of 0.5 mm and samples were rotated in their own plane during the measurement. Diffraction data are reported using combined Cu Kα1 and Kα2 radiation, without Kα2 stripping. The accuracy of the 2θ values as provided herein is in the range of +/−0.1-0.2° as it is generally the case for conventionally recorded X-ray powder diffraction patterns. A sample of Form A crystals of the COMPOUND (as obtained according to Example 1 above) has been stored at a temperature of 20-25° C. at 92% relative humidity for 2 months. […] The same result was obtained after storage for 8 weeks under the above conditions.

[12] = Hygroscopicity by gravimetric vapor sorption (GVS); assay type: physicochemical
Excerpt: Mass increase of a sample as obtained according to Example 1 in the first cycle from 40% r.h. to 80% r.h. corresponds to 0.4%. At 95% r.h. 2.2% moisture were taken up in a reversible way without hysteresis upon drying.

[13] = tested on: patients with rHT; conditions: 14 week phase 3 trial, versus 12% in each of the other groups; cited from earlier work
[14] = chronic oral administration, DOCA-salt rats
[15] = oral, 1, 10 and 100 mg/kg/day for 4 weeks

Haematocrit (Hct), marker of fluid retention [6]: did not impact
Compound: NS(=O)(=O)Nc1ncnc(OCCOc2ncc(Br)cn2)c1-c1ccc(Br)cc1 [ACT-132577, {5-(4-bromo-phenyl)-6-[2-(5-bromo-pyrimidin-2-yloxy)-ethoxy]-pyrimidin-4-yl}-sulfamide]
Heart rate (HR) [1]: not affected
MAP decrease (maximal MAP decrease observed over 6 consecutive hours) ([1]; 10 mg/kg, mean±SEM): 19±4 mm Hg
Left ventricular hypertrophy [2, 14]: tended to decrease
Plasma concentrations of N-terminal pro-brain natriuretic peptide (NTproBNP) [2, 14]: dose-dependent decrease
Renal blood flow [2, 14]: dose-dependently increased
Renal vascular resistance [2, 14]: decreased
DOCA-salt-induced increase in MAP [2, 15]: dose-dependently attenuated
Heart rate (HR) [2, 15]: without changing HR
Blood pressure when added on top of Exforge HCT [3]: further reduced blood pressure
Blood pressure reduction compared with spironolactone, on top of Exforge HCT ([3]; aprocitentan 10 mg/kg vs spironolactone 300 mg/kg): greater blood pressure reduction than spironolactone
Clearance in vivo [4]: much shorter
Half-life in vivo [4]: much longer
Blood pressure when added on top of Exforge HCT [5]: further reduced blood pressure
Blood pressure reduction compared with spironolactone, on top of Exforge HCT ([5]; aprocitentan 100 mg/kg vs spironolactone 300 mg/kg): greater blood pressure reduction than spironolactone
Heart rate (HR) [7]: not affected
MAP decrease (maximal MAP decrease observed over 6 consecutive hours) ([7]; 10 mg/kg, mean±SEM): 29±6 mm Hg
Further decrease of blood pressure (MAP) on top of canagliflozin ([8]; ACT-132577 30 mg/kg/day for 3 days after 12 days canagliflozin 30 mg/kg/day): −14±1 mmHg
Further decrease of blood pressure (MAP) on top of empagliflozin ([8]; ACT-132577 30 mg/kg/day for 3 days after 12 days empagliflozin 30 mg/kg/day): −18±3 mmHg
Decrease in blood pressure (MAP) on top of vehicle, without canagliflozin ([8]; ACT-132577 30 mg/kg/day on top of vehicle (canagliflozin comparison)): −16±2 mmHg
Decrease in blood pressure (MAP) on top of vehicle, without empagliflozin ([8]; ACT-132577 30 mg/kg/day on top of vehicle (empagliflozin comparison)): −14±2 mmHg
Heart rate (HR) [9]: not affected
MAP decrease (maximal MAP decrease observed over 6 consecutive hours) ([9]; 100 mg/kg, mean±SEM): 18±4 mm Hg

Compound: COc1ccccc1Oc1c(NS(=O)(=O)c2ccc(C)cn2)nc(-c2ccncc2)nc1OC [Avosentan, avosentan]
Albumin-to-creatinine ratio (ACR) [10]: significantly reduced

X-ray powder diffraction of the sample after storage ([11]; 2 months): still consisting only in Form A crystals
HPLC control after storage (change in peak area %, degradation) ([11]; 8 weeks): no significant degradation
Moisture taken up ([12]; at 95% r.h., reversible, without hysteresis upon drying): 2.2%
Mass increase ([12]; first cycle from 40% r.h. to 80% r.h.): 0.4%
Hygroscopicity (GVS) ([12]; sample as obtained according to Example 1): slightly hygroscopic
Compound: NS(=O)(=O)Nc1ncnc(OCCOc2ncc(Br)cn2)c1-c1ccc(Br)cc1 [Form A, {5-(4-bromo-phenyl)-6-[2-(5-bromo-pyrimidin-2-yloxy)-ethoxy]-pyrimidin-4-yl}-sulfamide]

Compound: COc1cc(OC)nc(O[C@H](C(=O)O)C(OC)(c2ccccc2)c2ccccc2)n1 [darusentan]
Fluid retention/edema (most frequent adverse event) [13]: 28%

Compound: OC[C@H]1O[C@@H](c2ccc(Cl)c(Cc3ccc(O[C@H]4CCOC4)cc3)c2)[C@H](O)[C@@H](O)[C@@H]1O [empagliflozin, reference compound]
Maximal effect on MAP of SGLT2 inhibitor alone [8]: −13±3 mmHg

Compound: CC(=O)S[C@@H]1CC2=CC(=O)CC[C@]2(C)[C@H]2CC[C@@]3(C)[C@@H](CC[C@@]34CCC(=O)O4)[C@H]12 [spironolactone, reference compound]
Blood pressure when added on top of Exforge HCT [3]: further reduced blood pressure
Blood pressure when added on top of Exforge HCT [5]: further reduced blood pressure

Compound: canagliflozin [reference compound]
Maximal effect on MAP of SGLT2 inhibitor alone [8]: −9±1 mmHg
